# Calls of active or inactive are those of the source.
# What was measured:
# Integrin alpha-4 = Integrin alpha-4 (Homo sapiens, UniProt P13612); test: allosteric modulators of alpha4 integrin VLA-4 – cell-based, LIBS antibody binding, flow cytometry, SAR follow-up (AID 488791); assay type: functional
# [1] = target: T1, DNA dC->dU-editing enzyme APOBEC-3A (Homo sapiens, UniProt P31941); test: SAR analysis of small molecule inhibitors of APOBEC3A DNA Deaminase via a fluorescence-based single-stranded DNA deaminase assay - Set 2.; assay type: functional; conditions: read-out: IC50_Mean
# [2] = target: T1, DNA dC->dU-editing enzyme APOBEC-3A; test: SAR analysis of small molecule inhibitors of APOBEC3A DNA Deaminase via a fluorescence-based single-stranded DNA deaminase assay.; assay type: functional; conditions: read-out: IC50_Mean
# [3] = target: T2, DNA dC->dU-editing enzyme APOBEC-3G (Homo sapiens, UniProt Q9HC16); test: Dose Response confirmation of small molecule APOBEC3G DNA Deaminase Inhibitors via a fluorescence-based single-stranded DNA deaminase assay. [Related pubchem assays (depositor defined):AID493012, AID493028]; assay type: functional
# [4] = target: T2, DNA dC->dU-editing enzyme APOBEC-3G; test: SAR analysis of small molecule inhibitors of APOBEC3G DNA Deaminase via a fluorescence-based single-stranded DNA deaminase assay - Set 2.; assay type: functional; conditions: read-out: IC50_Mean
# [5] = target: T2, DNA dC->dU-editing enzyme APOBEC-3G; test: inhibition of APOBEC3G ssDNA deamination – biochemical, fluorescence, single-stranded DNA substrate, SAR follow-up (AID 602136); assay type: functional; conditions: read-out: IC50_Mean
# [6] = target: T1, DNA dC->dU-editing enzyme APOBEC-3A; test: A3A deaminase inhibition for selectivity – biochemical, dose response (AID 504722); assay type: functional
# Large T antigen = Large T antigen (Simian virus 40, UniProt P03070); assay type: functional, Betapolyomavirus macacae;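 note: Confirmatory-stage PubChem screen for compounds that inhibit SV40 T antigen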
# Hexokinase = Hexokinase (Trypanosoma brucei, UniProt Q38C41); test: Confirmation assay for inhibitors of Trypanosoma brucei hexokinase 1-Analogue-first series. [Related pubchem assays (depositor defined):AID1430, AID1632, AID2516, AID2560, AID2579, AID2600, AID449725, AID492951]; assay type: functional
# [7] = target: Alkaline phosphatase, placental type (Homo sapiens, UniProt P05187); test: human placental alkaline phosphatase inhibition – biochemical, luminescence, confirmation (AID 1512); assay type: functional
# [8] = target: FAD-linked sulfhydryl oxidase ALR (Homo sapiens, UniProt P55789); test: ALR-catalysed DTT oxidation blockers – biochemical, H2O2 detection, luminescence, cherry-pick, dose response (AID 493248)
# X-box-binding protein 1 = X-box-binding protein 1 (Homo sapiens, UniProt P17861); assay type: functional, Cricetulus griseus;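 note: confirmatory dose-response counter-screen serving a CHOP assay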
# [9] = target: 1-acylglycerol-3-phosphate O-acyltransferase ABHD5/Perilipin-5 (Homo sapiens, UniProt Q00G26+Q8WTS1); test: Luminescence-based biochemical high throughput dose response assay for inhibitors of the interaction of the lipase co-activator protein, abhydrolase domain containing 5 (ABHD5) with perilipin-5 (MLDP; PLIN5) (2K validation set). [Related pubchem assays (depositor defined):AID493035, AID493241]
# Perilipin-1/ABHD5 = Perilipin-1/ABHD5 (Homo sapiens, UniProt O60240+Q8WTS1); test: Luminescence-based biochemical high throughput dose response assay for inhibitors of the interaction of the lipase co-activator protein, abhydrolase domain containing 5 (ABHD5) with perilipin-1 (PLIN1) (2K validation set). [Related pubchem assays (depositor defined):AID493027, AID493057]
# [10] = Luminescence Cell-Based Dose Retest to Confirm Inhibitors of Cancer Stem Cells. [Related pubchem assays (depositor defined):AID2717, AID2721]; assay type: functional; conditions: Homo sapiens
# [11] = alpha-synuclein stem-loop luciferase translation blockers – H4 neuroglioma cells, luminescence, confirmation (AID 1988); assay type: functional, cell-based
# [12] = Luminescence Cell-Based Dose Response HTS to Identify Inhibitors of 5'UTR Stem-Loop Driven Prion Protein mRNA Translation in H4 Neuroglioblastoma Cells. [Related pubchem assays: 1827 (Project Summary), 1813 (Primary HTS)]; assay type: functional
# [13] = target: Neurotensin receptor type 1 (Homo sapiens, UniProt P30989); assay type: functional;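 note: Image-based confirmatory dose-response assay measuring agonist activity at NTR1; NTR1-expressing U2OS osteosarcoma cells imaged for beta-arrestin GFP spot formation; agonist potency where compounds increase beta-arrestin recruitment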
# Sequence of Neurotensin receptor type 1 (P30989 whole entry): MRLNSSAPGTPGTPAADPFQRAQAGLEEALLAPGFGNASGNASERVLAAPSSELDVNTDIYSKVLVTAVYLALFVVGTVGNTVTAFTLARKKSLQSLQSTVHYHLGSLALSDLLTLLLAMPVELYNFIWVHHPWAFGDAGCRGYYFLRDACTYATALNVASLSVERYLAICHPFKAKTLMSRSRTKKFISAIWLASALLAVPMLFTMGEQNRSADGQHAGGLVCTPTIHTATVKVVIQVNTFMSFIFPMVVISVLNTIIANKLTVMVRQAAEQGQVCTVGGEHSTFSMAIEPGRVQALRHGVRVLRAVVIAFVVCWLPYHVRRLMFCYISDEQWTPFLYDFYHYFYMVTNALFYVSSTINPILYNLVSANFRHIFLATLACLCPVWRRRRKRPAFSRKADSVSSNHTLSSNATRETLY
# T2 sequence (Q9HC16 whole entry): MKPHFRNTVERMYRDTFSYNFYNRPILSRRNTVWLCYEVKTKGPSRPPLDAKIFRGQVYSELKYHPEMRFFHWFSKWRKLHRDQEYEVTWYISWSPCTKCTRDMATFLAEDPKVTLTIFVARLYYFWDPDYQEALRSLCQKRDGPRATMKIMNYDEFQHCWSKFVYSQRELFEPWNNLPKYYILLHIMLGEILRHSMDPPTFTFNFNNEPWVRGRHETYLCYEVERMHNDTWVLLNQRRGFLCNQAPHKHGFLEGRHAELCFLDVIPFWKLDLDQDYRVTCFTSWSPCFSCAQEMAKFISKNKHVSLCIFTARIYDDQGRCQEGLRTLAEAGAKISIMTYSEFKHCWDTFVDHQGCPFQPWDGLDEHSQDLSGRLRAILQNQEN
# T1 sequence (P31941 whole entry): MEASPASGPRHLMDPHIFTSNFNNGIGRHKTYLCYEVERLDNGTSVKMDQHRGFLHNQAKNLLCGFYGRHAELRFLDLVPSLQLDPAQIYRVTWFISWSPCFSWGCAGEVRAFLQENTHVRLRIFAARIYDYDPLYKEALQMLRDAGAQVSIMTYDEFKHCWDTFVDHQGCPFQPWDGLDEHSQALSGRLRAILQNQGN
# Sequence of Integrin alpha-4 (P13612 whole entry): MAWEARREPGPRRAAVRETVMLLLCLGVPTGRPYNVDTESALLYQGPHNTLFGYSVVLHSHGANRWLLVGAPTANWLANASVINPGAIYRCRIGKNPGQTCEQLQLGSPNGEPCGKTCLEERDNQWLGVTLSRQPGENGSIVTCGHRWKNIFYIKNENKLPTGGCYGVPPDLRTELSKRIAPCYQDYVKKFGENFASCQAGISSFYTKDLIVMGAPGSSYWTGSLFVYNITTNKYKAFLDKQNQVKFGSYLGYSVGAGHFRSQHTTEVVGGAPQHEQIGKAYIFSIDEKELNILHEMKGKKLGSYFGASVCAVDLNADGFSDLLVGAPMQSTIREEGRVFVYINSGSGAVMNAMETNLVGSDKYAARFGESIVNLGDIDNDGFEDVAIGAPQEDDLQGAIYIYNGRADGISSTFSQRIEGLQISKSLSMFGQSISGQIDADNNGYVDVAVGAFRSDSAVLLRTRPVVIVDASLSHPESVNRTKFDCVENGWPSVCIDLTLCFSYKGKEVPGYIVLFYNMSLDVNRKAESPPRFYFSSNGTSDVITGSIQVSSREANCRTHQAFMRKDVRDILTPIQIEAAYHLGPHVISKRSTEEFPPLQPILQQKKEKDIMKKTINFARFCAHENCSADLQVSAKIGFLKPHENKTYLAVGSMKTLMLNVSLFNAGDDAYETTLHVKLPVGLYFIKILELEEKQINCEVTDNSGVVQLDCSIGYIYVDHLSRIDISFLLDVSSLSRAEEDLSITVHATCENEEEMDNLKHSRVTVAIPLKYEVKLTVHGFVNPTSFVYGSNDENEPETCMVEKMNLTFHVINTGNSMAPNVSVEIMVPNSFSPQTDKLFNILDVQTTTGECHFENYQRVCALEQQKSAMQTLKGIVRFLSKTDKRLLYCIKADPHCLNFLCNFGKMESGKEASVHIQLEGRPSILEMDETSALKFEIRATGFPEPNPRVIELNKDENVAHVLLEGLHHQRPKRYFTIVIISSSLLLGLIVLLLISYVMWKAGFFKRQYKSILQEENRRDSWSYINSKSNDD
# Sequence of Large T antigen (P03070 whole entry): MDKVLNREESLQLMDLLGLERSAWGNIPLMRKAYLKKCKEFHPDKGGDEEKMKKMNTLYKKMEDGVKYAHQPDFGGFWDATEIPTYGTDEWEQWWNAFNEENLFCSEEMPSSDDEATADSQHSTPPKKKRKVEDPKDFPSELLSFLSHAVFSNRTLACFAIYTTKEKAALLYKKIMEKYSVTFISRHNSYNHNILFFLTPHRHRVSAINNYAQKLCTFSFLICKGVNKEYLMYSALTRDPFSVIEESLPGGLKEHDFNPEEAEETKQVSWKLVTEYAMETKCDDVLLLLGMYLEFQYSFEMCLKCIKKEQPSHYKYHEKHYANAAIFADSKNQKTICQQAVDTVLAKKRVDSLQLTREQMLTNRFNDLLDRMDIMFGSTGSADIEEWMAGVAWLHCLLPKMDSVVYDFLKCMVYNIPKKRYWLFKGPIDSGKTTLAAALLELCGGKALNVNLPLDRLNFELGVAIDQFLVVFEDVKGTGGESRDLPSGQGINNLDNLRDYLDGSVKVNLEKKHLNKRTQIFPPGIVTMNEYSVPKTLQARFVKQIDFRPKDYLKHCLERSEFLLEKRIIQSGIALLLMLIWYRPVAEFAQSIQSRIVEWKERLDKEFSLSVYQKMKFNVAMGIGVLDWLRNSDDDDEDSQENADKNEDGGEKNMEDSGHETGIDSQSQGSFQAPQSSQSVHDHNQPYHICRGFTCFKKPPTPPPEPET
# Sequence of Perilipin-1/ABHD5 (Q8WTS1 whole entry, the tested form may be a part): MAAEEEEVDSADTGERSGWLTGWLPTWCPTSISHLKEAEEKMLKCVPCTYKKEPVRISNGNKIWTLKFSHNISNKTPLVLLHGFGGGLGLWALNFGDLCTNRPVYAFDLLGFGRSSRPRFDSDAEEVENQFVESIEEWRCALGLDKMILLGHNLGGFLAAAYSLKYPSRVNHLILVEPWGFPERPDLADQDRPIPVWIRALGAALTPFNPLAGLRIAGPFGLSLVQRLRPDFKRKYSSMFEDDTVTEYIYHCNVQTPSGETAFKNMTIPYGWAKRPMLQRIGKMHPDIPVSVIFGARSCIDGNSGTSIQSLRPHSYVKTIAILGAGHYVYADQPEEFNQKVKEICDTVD
# Sequence of Perilipin-1/ABHD5 (O60240 whole entry, the tested form may be a part): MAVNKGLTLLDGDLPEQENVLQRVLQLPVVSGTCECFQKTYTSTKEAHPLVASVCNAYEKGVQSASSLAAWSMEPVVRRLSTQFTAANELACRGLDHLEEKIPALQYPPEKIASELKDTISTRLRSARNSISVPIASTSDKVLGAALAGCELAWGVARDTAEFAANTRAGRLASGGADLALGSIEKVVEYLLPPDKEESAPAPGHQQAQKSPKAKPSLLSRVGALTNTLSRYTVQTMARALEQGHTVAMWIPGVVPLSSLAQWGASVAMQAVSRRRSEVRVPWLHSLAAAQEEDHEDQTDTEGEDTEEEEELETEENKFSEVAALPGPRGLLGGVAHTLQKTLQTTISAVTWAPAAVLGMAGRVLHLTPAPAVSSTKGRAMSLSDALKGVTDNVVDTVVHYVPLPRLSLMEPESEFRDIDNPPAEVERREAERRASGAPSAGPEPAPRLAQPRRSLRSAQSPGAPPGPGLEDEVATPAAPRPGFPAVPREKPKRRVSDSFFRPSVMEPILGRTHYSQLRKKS
# Sequence of Alkaline phosphatase, placental type (P05187 whole entry): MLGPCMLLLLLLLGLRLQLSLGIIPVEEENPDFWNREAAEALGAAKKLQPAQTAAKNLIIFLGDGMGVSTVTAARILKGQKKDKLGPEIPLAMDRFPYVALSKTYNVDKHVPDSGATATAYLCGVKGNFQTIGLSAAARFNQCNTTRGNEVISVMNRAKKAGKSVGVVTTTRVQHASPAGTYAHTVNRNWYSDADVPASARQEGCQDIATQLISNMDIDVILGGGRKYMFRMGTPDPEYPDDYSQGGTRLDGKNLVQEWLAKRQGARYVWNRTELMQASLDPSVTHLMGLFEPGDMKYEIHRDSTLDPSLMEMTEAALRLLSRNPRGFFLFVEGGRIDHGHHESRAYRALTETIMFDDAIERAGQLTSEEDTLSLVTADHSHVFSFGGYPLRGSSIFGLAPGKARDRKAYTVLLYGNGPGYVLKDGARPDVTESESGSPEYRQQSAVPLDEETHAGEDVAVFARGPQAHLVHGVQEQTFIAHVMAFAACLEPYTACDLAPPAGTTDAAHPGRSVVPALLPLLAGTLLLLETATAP
# Sequence of Hexokinase (Q38C41 whole entry): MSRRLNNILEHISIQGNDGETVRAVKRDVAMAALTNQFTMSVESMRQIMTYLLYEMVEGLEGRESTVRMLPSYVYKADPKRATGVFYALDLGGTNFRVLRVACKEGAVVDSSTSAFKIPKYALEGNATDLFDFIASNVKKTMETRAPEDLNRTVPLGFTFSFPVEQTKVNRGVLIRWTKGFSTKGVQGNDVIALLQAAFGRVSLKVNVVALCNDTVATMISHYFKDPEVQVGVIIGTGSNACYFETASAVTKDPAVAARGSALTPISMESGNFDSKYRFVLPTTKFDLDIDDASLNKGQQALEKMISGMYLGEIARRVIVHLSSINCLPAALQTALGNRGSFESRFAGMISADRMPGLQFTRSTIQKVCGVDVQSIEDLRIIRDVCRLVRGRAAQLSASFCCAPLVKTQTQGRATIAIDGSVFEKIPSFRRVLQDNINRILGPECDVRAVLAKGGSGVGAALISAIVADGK
# Sequence of FAD-linked sulfhydryl oxidase ALR (P55789 whole entry): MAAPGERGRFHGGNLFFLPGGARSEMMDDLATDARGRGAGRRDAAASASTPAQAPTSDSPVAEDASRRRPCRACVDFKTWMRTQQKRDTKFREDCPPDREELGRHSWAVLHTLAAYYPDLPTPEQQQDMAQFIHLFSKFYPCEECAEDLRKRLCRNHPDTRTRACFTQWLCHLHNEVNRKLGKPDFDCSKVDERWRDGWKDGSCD
structure (smiles),measurement,setting,value
Cc1ccc(NC(=O)c2cc(N3C(=O)CCC3=O)ccc2N2CCOCC2)cc1Cl,EC50,Integrin alpha-4,23.3 µM (active)
CCCCn1c(=O)c2ccccc2n2c(S)nnc12,IC50,[1],> 99 µM (inactive)
same,IC50,[2],> 99 µM (inactive)
same,IC50,[3],1.7 µM (active)
same,IC50,[4],0.345 µM (active)
same,IC50,[5],2.72 µM (active)
same,IC50,[6],> 100 µM (inactive)
same,IC50,Large T antigen,11.5 µM (active)
O=C(O)c1ccc(Cl)cc1NC(=O)N1CCOCC1,IC50,Hexokinase,> 25 µM (inactive)
O=C(NNc1ccccn1)C(=O)NNS(=O)(=O)c1ccc(Cl)cc1,IC50,[7],> 100 µM (inactive)
same,AC50,[8],0.786 µM (active)
O=C(Nc1ccc(Oc2c(F)c(F)c(F)c(F)c2F)cc1)OC1CCN2Cc3ccccc3N=C12 (stereo not drawn),Absolute IC50 (XBP1),X-box-binding protein 1,10 µM
same,IC50,[9],9.84 µM (active)
same,IC50,Perilipin-1/ABHD5,8.78 µM (active)
same,AC50,[10],0.888 µM (active)
same,EC50,[11],8.72 µM (active)
same,EC50,[12],12 µM (active)
same,EC50,[13],19 µM (active)
